Measurements reported in patent US20210163453A1, “DERIVATIVES OF PAPAVERINE THAT ARE EFFECTIVE HYPOXIC TUMOR RADIOSENSITIZERS” (Ohio State Innovation Foundation, priority 2018, published 2021).

Tests used:
[1] = tested on: A549 cells; assay: Seahorse OCR in A549 cells (dose response, IC50, washout); assay type: cell-based, Human
[2] = Cellular toxicity of PPV derivatives by trypan blue; assay type: cell-based; settings: 10 uM, 72 h
Description: FIGS. 7A-7D show OCR and cellular toxicity data. […]. Bars represent mean OCR and PDE10 inhibitory activities from at least 5 (OCR) or 3 (PDE) replicates. All experiments were repeated at least twice. […] Values are mean+−SEM.
Experimental: Cell lines. All cell lines were purchased from the American Type Culture Collection (ATCC) and grown DMEM (Corning) supplemented with 10% FBS (Seradigm) and 1% Penicillin/Streptomycin (Fisher Bioreagents) at 37° C. in 5% CO2. Cells were treated with inhibitors papaverine hydrochloride (Sigma-Aldrich), rotenone (Sigma-Aldrich), piericidin A (Santa Cruz), capsaicin (Sigma-Aldrich), antimycin A (Sigma-Aldrich) and succinic acid disodium salt (Sigma-Aldrich). Cell viability was assessed by trypan blue exclusion.

[3] = tested on: MP2 ODDluc tumors; assay: ODD-luciferase in vivo oxygen reporter (bioluminescence imaging); parameters: species or system mice; settings: MP2 ODDluc tumors, 2 and 6 hours after drug
Source text: (§1) FIGS. 14A-14E summarize results obtained using ODD-luciferase as an in vivo oxygen reporter. […] (n=3-4, P<0.05).
(§2) Use of ODD-luciferase as an in vivo oxygen reporter. We have fused the oxygen dependent degradation domain (ODD) of the HIF1a protein to the luciferase reporter protein. This fusion protein is expressed in tumor cells and is stable and reports well in hypoxia, but is destroyed by cellular machinery when cells are well oxygenated (FIG. 14A). These cells were used to grow tumors in immune-deficient mice and the animals were exposed either 95% oxygen/5% CO2 (carbogen) or medical air and the tumor bioluminescence imaged by IVIS 30 minutes post injection. Increasing oxygen breathing decreases reporter signal (FIG. 14B). These animals were then treated with either papaverine or vehicle (FIG. 14C) or SMV32 or vehicle (FIG. 14E).

[4] = tested on: EO771 tumors; assay: Tumor growth delay of EO771 tumors with radiation (XRT); assay type: in vivo, mice; settings: for effect of drug before radiation on tumor growth delay (words): orthotopic EO771, 2 mg/kg 30-40 minutes before 5 Gy; for enhancement of tumor growth delay over XRT alone: orthotopic EO771, 2 mg/kg before 5 Gy
Description: (§3) P values were calculated against thigh muscle with two-tailed two-sample t test. FIG. 3B-3C show normalized tissue oxygenation in EO771 (b) or A549 (c) tumor-bearing mice after injection of 2 mg/kg PPV or vehicle saline (readings taken every minute, and curve is average of 5 traces). P value was analyzed by linear mixed model with autoregressive correlation structure at T=30-40 minutes. […] Values are mean area covered by pimonidazole-positive cells evaluated from 20 images per animal+−SEM. P value was calculated with two-tailed two-sample t test. […] Curves represent mean tumor volumes+−SEM. P values were calculated against XRT with two-tailed two-sample t test.
FIGS. 4A-4G show tumor growth before and after radiosensitization with PPV. FIG. 4A-4B show in vitro radiation survival assessment of A549 cell line treated with 10 μm PPV in normoxia (FIG. 4A) and anoxia (FIG. 4B). […] Values represent averaged colony counts+−standard deviation. […] Values are mean tumor volumes+−SEM. […] Values are mean tumor volumes+−SEM. FIG. 4E-4F show tumor growth delay. When tumors reached 4-fold volume increase, groups receiving no treatment or PPV only (FIG. 4E); and XRT only or PPV followed by XRT (FIG. 4F), tumor weights were compared. Values are mean tumor weights+−SEM (n=8). P values were calculated with two-tailed two-sample t test. FIG. 4G are related to FIG. 4E-4F tumor growth delay. Representative images of orthotopic EO771 tumors harvested on day 11 after treatment with XRT (top) or 2 mg/kg PPV followed by XRT (bottom). *P<0.05; **P<0.01; ***P<0.001; ****P<0.0001; n.s., not significant.
(§4) Bar graphs represent the mean area covered by pimonidazole-positive cells evaluated from 20 images per animal+−standard error of the mean. P value was calculated against control with two-tailed two-sample t test. […] Mean volumes+−SEM. P values were calculated against XRT with two-tailed two-sample t test. *P<0.05; **P<0.01; ***P<0.001; ****P<0.0001; n.s., not significant.
(§5) Tumor Growth kinetics. 2×10^6 EO771 or 5×10^6 A549 cells were injected s.c. into the flanks of 6-week old female immunocompetent C57/B6 (EO771) or immunocompromised nu/nu (A549) mice. Caliper measurements of opposing diameter were used to calculate the tumor volumes. Upon reaching […], the tumors were visualized by cone beam CT and treatment plans calculated using SARRP software. X-rays were delivered with a single beam delivering 5 Gy using the Small Animal Research Radiation Platform (SARRP, Xstrahl). Tumor volumes were measured until the post treatment volume increased 3-fold. Error bars represent standard deviation.
(§6) Both models of transplanted tumors that were used for the oxygenation experiments of papaverine's effect on radiation response in vivo were investigated. The murine breast cancer line EO771 that is syngeneic with the BL6 strain of mice was used and transplanted it orthotopically into the mammary fat pad of immune-competent mice. Also used was the human A549 lung adenocarcinoma line that was transplanted into the flank of immune-deficient mice. The breast cancers grew to approximately 150 mm^3 and were then randomized to receive either no treatment, a single dose of either 5 Gy, or papaverine at 2 mg/kg followed 30-40 minutes later by 5 Gy.

[5] = tested on: EO771 tumors; assay: Pimonidazole staining, hypoxic fraction of EO771 tumors; assay type: in vivo, mice
Description: as §3, §4
Pimonidazole staining. […] […] […] The hypoxic fraction of each tumor was quantified by thresholding signal at 50% of the maximum signal on control sections. Area covered by pimonidazole-positive cells was evaluated from 20 images per animal and averaged. Error bars represent the standard deviation.

[6] = tested on: MP2 tumors; assay: ODD-luciferase in vivo oxygen reporter (bioluminescence imaging); parameters: species or system mice; settings: orthotopic MP2 CMVluc tumors
Source text: as §1, §2

[7] = tested on: A549 flank xenografts; assay: Tumor growth delay of A549 flank xenografts with radiation (XRT); assay type: in vivo, mice
Description: Curves represent mean tumor volumes+−SEM. P values were calculated against XRT with two-tailed two-sample t test. *P<0.05; **P<0.01; ***P<0.001; ****P<0.0001; n.s., not significant.
as §5
For the test of the A549 flank tumors, the tumors were treated similarly to the breast cancer model, but 8 Gy was used, and a treatment group added consisting of 8 Gy radiotherapy followed 30 minutes later by 2 mg/kg papaverine. The reverse schedule would indicate if the drug must be present before the radiation so that it would alter the tumor metabolism to make it more susceptible to the radiotherapy.

[8] = tested on: model tumors grown in mice; assay: Tumor growth delay with radiation, model tumors pooled; assay type: in vivo; settings: papaverine 30-60 minutes prior to radiation
Description: as §5
as §6, with “Gy. […]” for “Gy.”

| Structure (SMILES) | IC50 ([1]; Homo sapiens, A549 cells by Seahorse, n=5 replicates, read-out: mitochondrial IC50 (OCR IC50)) | cellular toxicity in vitro [2] | ODD-luciferase reporter signal [3] | growth delay compared to radiation alone ([4]; heterotopic EO771 flank tumors, nude mice, 2 mg/kg 35 minutes prior to 5 Gy) | tumor hypoxia by pimonidazole staining ([5]; orthotopic EO771, immune-competent mice, 2 mg per kg) | time for OCR to return to baseline after drug removal (washout) ([1]; 10 μM PPV, media replaced) | dose needed relative to rotenone for similar OCR inhibition ([1]; dose response analysis, A549) | CMV luciferase (non-hypoxia responsive) control signal [6] | effect of drug after XRT on growth delay ([7]; 2 mg/kg after 8 Gy) | effect of drug before XRT on growth delay ([7]; 2 mg/kg before 8 Gy) | increase in tumor growth delay compared to XRT alone ([7]; 2 mg/kg before 8 Gy) | increase in tumor growth delay compared to XRT alone ([7]; 2 mg/kg before 8 Gy, listed as papaverine) | effect of drug before radiation on tumor growth delay (words) [4] | effect of drug before radiation on tumor growth delay (words) ([4]; listed as papaverine) | enhancement of tumor growth delay over XRT alone [4] | enhancement of tumor growth delay over XRT alone ([4]; listed as papaverine) | effect of single dose of drug alone on tumor growth ([4]; orthotopic EO771, 2 mg/kg, no XRT) | increase of relative growth delay of a single dose of radiation [8] | increase of relative growth delay of a single dose of radiation ([8]; listed as papaverine) | decrease in the hypoxic fraction of tumors ([5]; 2 mg/kg PPV for one hour, pimonidazole) |
| --- | --- | --- | --- | --- | --- | --- | --- | --- | --- | --- | --- | --- | --- | --- | --- | --- | --- | --- | --- | --- |
| COc1cc2ccnc(Cc3cccc4ccccc34)c2cc1OC [SMV-32] | 7.4 µM | Neither of these compounds shows cellular toxicity | significant decrease in signal | activity that is comparable to papaverine | decreased tumor hypoxia | – | – | – | – | – | – | – | – | – | – | – | – | – | – | – |
| COc1ccc(Cc2nccc3cc(OC)c(OC)cc23)cc1OC [PPV, papaverine] | – | – | significant decrease in signal | – | – | less than one and one | 100 × higher dose than rotenone | did not show any change | did not have any effect compared to radiation alone | enhances tumor growth delay | greater than 3 fold | 2.1-3.9 fold | significantly adds to tumor growth delay | significantly enhanced the antitumor effects of the radiation | 2-4 fold | 1.9-2.8 fold | no significant effect | 2-4 fold | 1.9-3.9 fold | 72% |
